According to patent US9359378B2, “Substituted oxazolo[3,4-a]pyrazines as pharmaceutcals” (BIOLAB SANUS FARMACÊUTICA LTDA., priority 2014, dated 2016):

Tests used:
[1] = target: T1, PDE2A1 (Homo sapiens, UniProt O00408); experiment: PDE2A1 enzyme inhibition (HTRF, cAMP substrate); format: biochemical; settings: human recombinant enzyme (Sf9); FIGS. 14 and 15; test concentration not given
T1 construct: host or cells: Sf9
Description: (§1) The effects of the BL-230 and BL-236 compounds on the activity of the human enzymes PDE2A1, PDE3A, PDE4A1A, PDE4B1, PDE7A, PDE8A1, and PDE10A2 and PDE11A4 were quantified by measuring the production of adenosine 5′-monophosphate (5′AMP) from cyclic adenosine monophosphate (cAMP), with human recombinant enzyme expressed in Sf9 cells and the detection method was by using HTRF®.
(§2) The test compound, the reference compound or water (control) were mixed with the enzyme (the enzymes and their amounts used are described in Table 1) in a buffer containing 44.4 mM Tris-HCl, 5.28 mM MgCl2, 2.64 mM DTT and 0.044% Tween® 20 (pH 7.8). Then, the reaction was initiated by the addition of 40 nM of cAMP substrate and the mixture was incubated for 30 minutes at room temperature. For basal control measurements, the enzyme was omitted from the reaction mixture. The fluorescence acceptor (Dye2 labeled cAMP) and fluorescence donor (anti-cAMP antibody labeled with europium cryptate) were added in the presence of 1 mM IBMX. After 60 minutes, the fluorescence corresponding to the amount of transfer residual cAMP was measured at λex=337 nm, λem=620 nm and λem=665 nm using a microplate reader (RubyStar, BMG). The enzyme activity was determined by the signal division measured at 665 nm, by the measured signal at 620 nm (right). The results were expressed as a inhibition percentage of the control enzyme activity. […]

[2] = target: T2, PDE3B (Homo sapiens, UniProt Q13370); experiment: PDE3B enzyme inhibition (HTRF, cAMP substrate); format: biochemical; settings: human recombinant enzyme (Sf9); FIGS. 14 and 15; test concentration not given
T2 construct: host or cells: Sf9
T2 sequence (Q13370 whole entry): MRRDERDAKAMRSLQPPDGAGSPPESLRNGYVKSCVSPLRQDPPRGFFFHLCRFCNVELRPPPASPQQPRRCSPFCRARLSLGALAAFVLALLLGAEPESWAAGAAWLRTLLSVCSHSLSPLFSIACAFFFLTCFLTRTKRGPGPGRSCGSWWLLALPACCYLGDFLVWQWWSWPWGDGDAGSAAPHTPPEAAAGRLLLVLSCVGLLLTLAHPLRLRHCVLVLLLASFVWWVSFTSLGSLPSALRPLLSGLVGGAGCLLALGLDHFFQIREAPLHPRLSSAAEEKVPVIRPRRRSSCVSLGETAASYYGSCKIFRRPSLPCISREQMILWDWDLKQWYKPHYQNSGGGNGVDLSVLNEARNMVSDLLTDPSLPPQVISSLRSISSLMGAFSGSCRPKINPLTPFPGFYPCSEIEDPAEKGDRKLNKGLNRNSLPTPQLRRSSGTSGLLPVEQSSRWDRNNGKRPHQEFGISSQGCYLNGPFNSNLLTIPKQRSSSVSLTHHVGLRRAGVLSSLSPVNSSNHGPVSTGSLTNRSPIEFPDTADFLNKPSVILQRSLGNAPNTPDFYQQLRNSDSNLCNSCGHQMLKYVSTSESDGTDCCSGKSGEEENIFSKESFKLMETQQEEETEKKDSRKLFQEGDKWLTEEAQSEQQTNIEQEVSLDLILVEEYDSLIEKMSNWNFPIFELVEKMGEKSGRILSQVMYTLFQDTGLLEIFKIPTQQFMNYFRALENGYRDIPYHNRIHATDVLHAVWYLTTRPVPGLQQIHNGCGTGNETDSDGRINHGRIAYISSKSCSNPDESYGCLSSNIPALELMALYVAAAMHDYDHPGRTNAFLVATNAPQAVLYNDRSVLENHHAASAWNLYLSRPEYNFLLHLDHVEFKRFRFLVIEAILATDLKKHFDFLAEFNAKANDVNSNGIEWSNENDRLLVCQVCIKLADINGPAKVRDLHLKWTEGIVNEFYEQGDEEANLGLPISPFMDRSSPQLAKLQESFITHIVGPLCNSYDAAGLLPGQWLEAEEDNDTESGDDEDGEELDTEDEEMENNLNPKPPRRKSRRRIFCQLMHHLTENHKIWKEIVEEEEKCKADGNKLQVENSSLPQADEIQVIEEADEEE
Experimental: The effects of compounds BL-230 and BL-236 on human PDE3B enzyme activity was quantified by measuring the production of 5′AMP from CAMP using human recombinant enzyme expressed in Sf9 cells and the detection method was by using HTRF®.
The test compound, the reference compound or water (control) were mixed with 0.7 U of the enzyme PDE3B in a buffer containing 50 mM Tris-HCl, 6 mM MgCl2, 3 mM DTT and 0.05% Tween® 20 (pH 7.8). Then, the reaction was initiated by addition of 40 nM of cAMP substrate and the mixture was incubated for 30 minutes at 22° C. For basal control measurements, the enzyme was omitted from the reaction mixture. The fluorescence acceptor (Dye2 labeled cAMP) and fluorescence donor (anti-cAMP antibody labeled with europium cryptate) were added in the presence of 1 mM IBMX. After 60 minutes, the transfer of fluorescence corresponding to the amount of residual cAMP was measured at λex=337 nm, λem=620 nm and λem=665 nm using a microplate reader (RubyStar, BMG). The enzyme activity was determined by the signal division measured at 665 nm, by the signal measured at 620 nm (right). The results were expressed as an inhibition percentage of the control enzyme activity. The standard inhibitory reference compound milrinone was used, which was tested in each experiment at several concentrations to obtain an inhibition curve from which its IC50 value was calculated. […]

[3] = target: T3, PDE4A1A (Homo sapiens, UniProt P27815); experiment: PDE4A1A enzyme inhibition (HTRF, cAMP substrate); format: biochemical; settings: human recombinant enzyme (Sf9); FIGS. 14 and 15; test concentration not given
T3 construct: host or cells: Sf9
T3 sequence (P27815 1-647 isoform P27815-4): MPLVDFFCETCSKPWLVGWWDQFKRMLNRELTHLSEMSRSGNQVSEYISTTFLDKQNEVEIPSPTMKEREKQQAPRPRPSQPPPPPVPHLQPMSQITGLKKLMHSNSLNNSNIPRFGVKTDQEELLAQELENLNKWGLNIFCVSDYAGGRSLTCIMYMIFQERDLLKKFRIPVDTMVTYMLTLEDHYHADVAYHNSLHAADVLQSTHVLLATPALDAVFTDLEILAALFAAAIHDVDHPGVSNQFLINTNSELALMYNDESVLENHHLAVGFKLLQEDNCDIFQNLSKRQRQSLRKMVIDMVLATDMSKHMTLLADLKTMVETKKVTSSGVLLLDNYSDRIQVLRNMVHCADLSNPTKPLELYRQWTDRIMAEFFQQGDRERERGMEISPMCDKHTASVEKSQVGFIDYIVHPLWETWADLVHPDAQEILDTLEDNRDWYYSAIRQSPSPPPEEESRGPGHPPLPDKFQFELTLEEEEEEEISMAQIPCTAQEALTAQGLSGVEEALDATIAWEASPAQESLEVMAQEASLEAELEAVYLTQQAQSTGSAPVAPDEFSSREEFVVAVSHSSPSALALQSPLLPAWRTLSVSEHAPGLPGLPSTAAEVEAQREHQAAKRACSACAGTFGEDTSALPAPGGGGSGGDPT
Description: as §1, §2

T1 sequence (O00408 1-920 isoform O00408-2): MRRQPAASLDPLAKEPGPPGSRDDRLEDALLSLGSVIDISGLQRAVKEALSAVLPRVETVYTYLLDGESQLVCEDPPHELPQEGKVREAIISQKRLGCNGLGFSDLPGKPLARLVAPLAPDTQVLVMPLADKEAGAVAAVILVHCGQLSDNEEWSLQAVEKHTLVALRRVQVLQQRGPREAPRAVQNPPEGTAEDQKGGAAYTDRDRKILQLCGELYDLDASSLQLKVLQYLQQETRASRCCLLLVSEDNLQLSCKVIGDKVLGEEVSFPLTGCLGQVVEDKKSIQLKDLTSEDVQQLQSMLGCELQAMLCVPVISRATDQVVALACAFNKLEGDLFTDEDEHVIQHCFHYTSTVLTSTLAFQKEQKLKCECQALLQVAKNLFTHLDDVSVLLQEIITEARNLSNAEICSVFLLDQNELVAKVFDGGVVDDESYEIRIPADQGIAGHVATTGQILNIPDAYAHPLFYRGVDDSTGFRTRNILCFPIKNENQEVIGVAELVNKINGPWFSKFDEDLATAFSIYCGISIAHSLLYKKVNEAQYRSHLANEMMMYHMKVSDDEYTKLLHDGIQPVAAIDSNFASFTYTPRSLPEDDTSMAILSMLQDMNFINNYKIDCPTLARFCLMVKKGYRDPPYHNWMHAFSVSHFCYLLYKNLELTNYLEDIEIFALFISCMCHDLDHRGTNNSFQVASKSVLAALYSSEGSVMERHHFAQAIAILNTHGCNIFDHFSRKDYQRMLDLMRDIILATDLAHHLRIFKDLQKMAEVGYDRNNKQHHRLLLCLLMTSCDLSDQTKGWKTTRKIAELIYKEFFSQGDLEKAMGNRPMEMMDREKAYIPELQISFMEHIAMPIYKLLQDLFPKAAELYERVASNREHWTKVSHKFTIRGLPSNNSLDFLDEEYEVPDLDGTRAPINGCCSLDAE

Structure (SMILES): O=C1C2=C(c3c[nH]c4ccccc34)OC(c3ccc4c(c3)OCO4)N2C(=O)CN1CCO (centres unmarked) [BL-230, 3-(benzo[d][1,3]dioxol-5yl)-7-(2-hydroxyethyl)-1-(1H-indol-3-yl)-6,7-dihydro-3H-oxazolo[3,4-a]pyrazine-5,8-dione]
- inhibition of PDE2A1 enzyme activity [1]: did not inhibit
- inhibition of PDE3B enzyme activity [2]: did not inhibit
- inhibition of PDE4A1A enzyme activity [3]: did not inhibit
- melting point: 254 to 258 °C

Structure (SMILES): C[C@@H](CO)N1CC(=O)N2C(=C(c3c[nH]c4ccccc34)OC2c2ccc3c(c2)OCO3)C1=O (stereo partly drawn) [BL-236, 3-(benzo[d][1,3]dioxol-5yl)-7-((S)1-hydroxypropan-2yl)-1-(1H-indol-3-yl)-6,7-dihydro-3H-oxazolo[3,4-a]pyrazine-5,8-dione]
- inhibition of PDE2A1 enzyme activity [1]: did not inhibit
- inhibition of PDE3B enzyme activity [2]: did not inhibit
- inhibition of PDE4A1A enzyme activity [3]: did not inhibit
- melting point: 235 to 239 °C
